Experimental data published in patent US20240148821A1, “PHARMACEUTICAL USE OF CYCLIC PEPTIDE COMPOUND” (CHUGAI SEIYAKU KABUSHIKI KAISHA, priority 2021, published 2024).
Numbered stars: 1 amine (or outer) side, 2 acyl side, 3 side chain; on linkers, the order of the positions; unused ones are H or OH. Bridge positions count the residues as written; N and C are the ends. Square brackets hold non-standard residues; d marks the D form. Peptide text beside a SMILES is read from it. * marks the point of attachment. hPhe(3,5-F2-4-CF3) = N[C@@H](CCc1cc(F)c(C(F)(F)F)c(F)c1)C(=O)O; hPhe(3-Cl-4-CF3) = N[C@@H](CCc1ccc(C(F)(F)F)c(Cl)c1)C(=O)O; hPhe(3-F,4-CF3) = N[C@@H](CCc1ccc(C(F)(F)F)c(F)c1)C(=O)O; NMePhe(4-CF3) = CN[C@@H](Cc1ccc(C(F)(F)F)cc1)C(=O)O; X15 = O=C([C@H](CCc1cc(Cl)c(Cl)c(Cl)c1)N[*:1])[*:2]; NEtPhe(4-Me) = CCN[C@@H](Cc1ccc(C)cc1)C(=O)O; NMePhe(4-Cl) = CN[C@@H](Cc1ccc(Cl)cc1)C(=O)O; NMePhe(4-Me) = CN[C@@H](Cc1ccc(C)cc1)C(=O)O; X10 = C#Cc1cccc(C[C@H](N[*:1])C(=O)[*:2])c1; NMePhe(4-F) = CN[C@@H](Cc1ccc(F)cc1)C(=O)O; NMedβ3hAla = C[C@H](CC(=O)[*:2])N(C)[*:1]; hNle(7,7-F2) = N[C@@H](CCCCC(F)F)C(=O)O; NMeGly(cPent) = CN[C@H](C(=O)O)C1CCCC1; Pro(4,4-F2) = O=C(O)[C@@H]1CC(F)(F)CN1; NMeGly(cBu) = CN[C@H](C(=O)O)C1CCC1; NMeCha = CN[C@@H](CC1CCCCC1)C(=O)O; Hyp = O=C(O)[C@@H]1C[C@@H](O)CN1; NEtLeu = CCN[C@@H](CC(C)C)C(=O)O; NMeChg = CN[C@H](C(=O)O)C1CCCCC1; NMeI = CC[C@H](C)[C@H](NC)C(=O)O; NMeT = CN[C@H](C(=O)O)[C@@H](C)O; Cha = N[C@@H](CC1CCCCC1)C(=O)O; NMeD = CN[C@@H](CC(=O)O)C(=O)O; NMeL = CN[C@@H](CC(C)C)C(=O)O; NMeV = CN[C@H](C(=O)O)C(C)C; d(β3hA) = C[C@@H](N)CC(=O)O; Azetidin(1-yl) = C1CN(*)C1; Morpholide = C1CN(*)CCO1; NMeA = CN[C@@H](C)C(=O)O; NMeAib = CNC(C)(C)C(=O)O; Nle = CCCC[C@H](N)C(=O)O; Piperidide = C1CCN(*)CC1; Pyrrolidide = C1CCN(*)C1; dNMeA = CN[C@H](C)C(=O)O; Ac5c = NC1(C(=O)O)CCCC1; Aze = O=C(O)[C@@H]1CCN1; Cyclobutyl = C1CC(*)C1; Sar = CNCC(=O)O

Tests used:
[1] = system: Human pancreatic cancer cell line AsPC-1 (G12D mutation Kras); test: AsPC-1 cell growth inhibition (AsPC-1 CGI); type: cell-based; settings: read-out: AsPC-1 cell growth inhibition, 50% growth inhibitory concentration (IC50 value); 96 hours, CellTiter-Glo, values classified in ranges
[2] = molecular target: protein-protein interaction between Kras and SOS1 (biotin-tagged human Kras loaded with GDP, His-tagged human SOS1) (Homo sapiens (Human), UniProt P01116, G12D); test: Protein-protein interaction inhibition between Kras and SOS1 (KrasG12D-SOS PPI) using AlphaScreen; type: biochemical; settings: AlphaScreen; biotin-tagged human Kras loaded with GDP, His-tagged human SOS1; read-out: KRAS G12D-SOS PPI IC50;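 note: kras produced in E. coli, Ni-coupled donor beads and streptavidin acceptor beads, excitation 680 nm with emission detected at 520–620 nm via singlet oxygen transfer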

SMILES	IC50 [1] [nM]	IC50 [2] [nM]
CC[C@H](C)[C@@H]1NC(=O)[C@H](CC(C)C)N(C)C(=O)C[C@@H](C(=O)N2CCCC2)N(C)C(=O)[C@H]([C@@H](C)CC)N(C)C(=O)C2(CCCC2)NC(=O)[C@@H]2CCCN2C(=O)[C@H](CCc2ccc(C(F)(F)F)c(Cl)c2)NC(=O)CN(C)C(=O)[C@H](CC2CCCCC2)N(C)C(=O)[C@@H]2CCN2C(=O)[C@H](C)N(C)C1=O [Compound 1843] ([NMeL]I[NMeA][Aze][NMeCha][Sar][hPhe(3-Cl-4-CF3)]P[Ac5c][NMeI][NMeD]-Pyrrolidide; lactam N-11)	≤ 20	0.84
CC[C@H](C)[C@@H]1NC(=O)[C@H](CC(C)C)N(C)C(=O)C[C@@H](C(=O)N2CCOCC2)N(C)C(=O)[C@H](C2CCCC2)N(C)C(=O)C2(CCCC2)NC(=O)[C@@H]2CCCN2C(=O)[C@H](CCc2ccc(C(F)(F)F)c(F)c2)NC(=O)CN(C)C(=O)[C@H](Cc2ccc(C)cc2)N(C)C(=O)[C@@H]2CCN2C(=O)[C@H](C)N(C)C1=O [Compound 938] ([NMeL]I[NMeA][Aze][NMePhe(4-Me)][Sar][hPhe(3-F,4-CF3)]P[Ac5c][NMeGly(cPent)][NMeD]-Morpholide; lactam N-11)	≤ 20	0.69
C#Cc1cccc(C[C@@H]2NC(=O)CN(C)C(=O)[C@H](Cc3ccc(Cl)cc3)N(C)C(=O)CN(C)C(=O)CN(C)C(=O)[C@H]([C@@H](C)CC)NC(=O)[C@H](CC(C)C)N(C)C(=O)C[C@@H](C(=O)N3CCCCC3)N(C)C(=O)[C@H](CC(C)C)NC(=O)C(C)(C)N(C)C(=O)[C@H](CCCC)NC2=O)c1 [Compound 2142, (3S,9S,12S,18S,27S,30S,34S)-9-butyl-18-[(4-chlorophenyl)methyl]-12-[(3-ethynylphenyl)methyl]-3,30-diisobutyl-1,6,6,7,16,19,22,25,31-nonamethyl-27-[(1S)-1-methylpropyl]-34-(piperidine-1-carbonyl)-1,4,7,10,13,16,19,22,25,28,31-undecazacyclotetratriacontane-2,5,8,11,14,17,20,23,26,29,32-undecone] ([NMeL]I[Sar][Sar][NMePhe(4-Cl)][Sar][X10][Nle][NMeAib]L[NMeD]-Piperidide; lactam N-11)	> 500	44
CC[C@H](C)[C@@H]1NC(=O)[C@H](C)N(C)C(=O)C[C@@H](C(=O)N2CCCCC2)N(C)C(=O)[C@H](C(C)C)N(C)C(=O)C2(CCCC2)NC(=O)[C@@H]2CCCN2C(=O)[C@H](CCc2cc(Cl)c(Cl)c(Cl)c2)NC(=O)CN(C)C(=O)[C@H](CC2CCCCC2)N(C)C(=O)CN(C)C(=O)CN(C)C1=O [Compound 2068, (3S,9S,18S,21S,25S,28S,34S)-9-(cyclohexylmethyl)-28-isopropyl-7,10,13,16,21,22,26,29-octamethyl-18-[(1S)-1-methylpropyl]-25-(piperidine-1-carbonyl)-3-[2-(3,4,5-trichlorophenyl)ethyl]spiro[1,4,7,10,13,16,19,22,26,29,32-undecazabicyclo[32.3.0]heptatriacontane-31,1′-cylopentane]-2,5,8,11,14,17,20,23,27,30,33-undecone] ([NMeA]I[Sar][Sar][NMeCha][Sar][X15]P[Ac5c][NMeV][NMeD]-Piperidide; lactam N-11)	> 500	1.7
CC[C@H](C)[C@@H]1NC(=O)[C@H](C)N(C)C(=O)C[C@@H](C)NC(=O)[C@H](C(C)C)N(C)C(=O)C2(CCCC2)NC(=O)[C@@H]2CCCN2C(=O)[C@H](CCc2ccc(C(F)(F)F)c(Cl)c2)NC(=O)CN(C)C(=O)[C@H](CC2CCCCC2)N(C)C(=O)[C@@H]2CCCN2C(=O)CN(C)C1=O [Compound 1056] (cyclo([Ac5c][NMeV][d(β3hA)][NMeA]I[Sar]P[NMeCha][Sar][hPhe(3-Cl-4-CF3)]P))	> 500	18
CC[C@H](C)[C@@H]1NC(=O)[C@H](C)N(C)C(=O)C[C@@H](C)NC(=O)[C@H](C(C)C)N(C)C(=O)C2(CCCC2)NC(=O)[C@@H]2CCCN2C(=O)[C@H](CCc2ccc(C(F)(F)F)c(Cl)c2)NC(=O)[C@@H](C)N(C)C(=O)[C@H](Cc2ccc(F)cc2)N(C)C(=O)[C@@H]2CCN2C(=O)[C@H](C)N(C)C1=O [Compound 1702] (cyclo([Ac5c][NMeV][d(β3hA)][NMeA]I[NMeA][Aze][NMePhe(4-F)][dNMeA][hPhe(3-Cl-4-CF3)]P))	> 500	31
CC[C@H](C)[C@@H]1NC(=O)[C@H](CC(C)C)N(C)C(=O)C[C@@H](C)N(C)C(=O)[C@H]([C@@H](C)CC)N(C)C(=O)C2(CCCC2)NC(=O)[C@@H]2CC(F)(F)CN2C(=O)[C@H](CCc2ccc(C(F)(F)F)c(Cl)c2)NC(=O)CN(C)C(=O)[C@H](Cc2ccc(C(F)(F)F)cc2)N(C)C(=O)[C@@H]2CCN2C(=O)[C@H](C)N(C)C1=O [Compound 668] (cyclo([Ac5c][NMeI][NMedβ3hAla][NMeL]I[NMeA][Aze][NMePhe(4-CF3)][Sar][hPhe(3-Cl-4-CF3)][Pro(4,4-F2)]))	≤ 20	1.9
CC(C)C[C@H]1C(=O)N[C@@H](CCCCC(F)F)C(=O)N(C)[C@@H](C)C(=O)N2CC[C@H]2C(=O)N(C)[C@@H](CC2CCCCC2)C(=O)N(C)CC(=O)N[C@@H](CCc2ccc(C(F)(F)F)c(Cl)c2)C(=O)N2CCC[C@H]2C(=O)NC2(CCCC2)C(=O)N(C)[C@@H](C(C)C)C(=O)N(C)[C@H](C(=O)N2CCCCC2)CC(=O)N1C [Compound 145] ([NMeL][hNle(7,7-F2)][NMeA][Aze][NMeCha][Sar][hPhe(3-Cl-4-CF3)]P[Ac5c][NMeV][NMeD]-Piperidide; lactam N-11)	> 500	25
CC(C)C[C@H]1C(=O)N[C@@H](COC2CCC2)C(=O)N(C)[C@@H](C)C(=O)N2CC[C@H]2C(=O)N(C)[C@@H](CC2CCCCC2)C(=O)N(C)CC(=O)N[C@@H](CCc2ccc(C(F)(F)F)c(Cl)c2)C(=O)N2CCC[C@H]2C(=O)NC2(CCCC2)C(=O)N(C)[C@@H](C(C)C)C(=O)N(C)[C@H](C(=O)N2CCCCC2)CC(=O)N1C [Compound 45] ([NMeL]S(Cyclobutyl)[NMeA][Aze][NMeCha][Sar][hPhe(3-Cl-4-CF3)]P[Ac5c][NMeV][NMeD]-Piperidide; lactam N-11)	> 500	84
CC[C@H](C)[C@@H]1NC(=O)[C@H](CC(C)C)N(C)C(=O)C[C@@H](C(=O)N2CCC2)N(C)C(=O)[C@H](C2CCCC2)N(C)C(=O)C2(CCCC2)NC(=O)[C@@H]2CCCN2C(=O)[C@H](CCc2ccc(C(F)(F)F)c(Cl)c2)NC(=O)CN(C)C(=O)[C@H](Cc2ccc(C)cc2)N(CC)C(=O)[C@@H]2CCN2C(=O)[C@H](C)N(C)C1=O [Compound 506] ([NMeL]I[NMeA][Aze][NEtPhe(4-Me)][Sar][hPhe(3-Cl-4-CF3)]P[Ac5c][NMeGly(cPent)][NMeD]-{Azetidin(1-yl)}; lactam N-11)	≤ 20	0.68
CCO[C@@H]1C[C@H]2C(=O)NC3(CCCC3)C(=O)N(C)[C@@H](C3CCCCC3)C(=O)N(C)[C@H](C(=O)N3CCCC3)CC(=O)N(C)[C@@H](C3CCC3)C(=O)N[C@@H]([C@@H](C)CC)C(=O)N(C)CC(=O)N(C)CC(=O)N(C)[C@@H](CC3CCCCC3)C(=O)N(C)CC(=O)N[C@@H](CCc3cc(F)c(C(F)(F)F)c(F)c3)C(=O)N2C1 [Compound 1144] ([NMeGly(cBu)]I[Sar][Sar][NMeCha][Sar][hPhe(3,5-F2-4-CF3)][Hyp](Et)[Ac5c][NMeChg][NMeD]-Pyrrolidide; lactam N-11)	≤ 20	0.49
CC[C@H](C)[C@@H]1NC(=O)[C@H](CC(C)C)N(CC)C(=O)C[C@@H](C(=O)N2CCOCC2)N(C)C(=O)[C@H](C2CCCC2)N(C)C(=O)C2(CCCC2)NC(=O)[C@@H]2CCCN2C(=O)[C@H](CCc2ccc(C(F)(F)F)c(Cl)c2)NC(=O)CN(C)C(=O)[C@H](CC2CCCCC2)N(C)C(=O)[C@@H]2CCN2C(=O)[C@H](C)N(C)C1=O [Compound 1220] ([NEtLeu]I[NMeA][Aze][NMeCha][Sar][hPhe(3-Cl-4-CF3)]P[Ac5c][NMeGly(cPent)][NMeD]-Morpholide; lactam N-11)	≤ 20	0.64
CC(C)C[C@H]1C(=O)N[C@@H](CC2CCCCC2)C(=O)N(C)CC(=O)N(C)CC(=O)N(C)[C@@H](CC2CCCCC2)C(=O)N(C)CC(=O)N[C@@H](CCc2ccc(C(F)(F)F)c(Cl)c2)C(=O)N2CCC[C@H]2C(=O)NC2(CCCC2)C(=O)N(C)[C@@H](C2CCCCC2)C(=O)N(C)[C@H](C(=O)N2CCCCC2)CC(=O)N1C [Compound 1] ([NMeL][Cha][Sar][Sar][NMeCha][Sar][hPhe(3-Cl-4-CF3)]P[Ac5c][NMeChg][NMeD]-Piperidide; lactam N-11)	> 500	5.9
CC[C@H](C)[C@@H]1NC(=O)[C@H](CC(C)C)N(CC)C(=O)C[C@@H](C(=O)N(C)C)N(C)C(=O)[C@H]([C@@H](C)CC)N(C)C(=O)C2(CCCC2)NC(=O)[C@@H]2CCCN2C(=O)[C@H](CCc2ccc(C(F)(F)F)c(Cl)c2)NC(=O)CN(C)C(=O)[C@H](Cc2ccc(C)cc2)N(C)C(=O)[C@@H]2CCN2C(=O)[C@H](C)N(C)C1=O [Compound 1365] ([NEtLeu]I[NMeA][Aze][NMePhe(4-Me)][Sar][hPhe(3-Cl-4-CF3)]P[Ac5c][NMeI][NMeD]-NMe2; lactam N-11)	≤ 20	1.2
CC[C@H](C)[C@@H]1NC(=O)[C@H](CC(C)C)N(C)C(=O)C[C@@H](C(=O)N2CCCCC2)N(C)C(=O)[C@H]([C@@H](C)O)N(C)C(=O)C2(CCCC2)NC(=O)[C@@H]2CCCN2C(=O)[C@H](CCc2ccc(C(F)(F)F)c(Cl)c2)NC(=O)CN(C)C(=O)[C@H](CC2CCCCC2)N(C)C(=O)[C@@H]2CCN2C(=O)[C@H](C)N(C)C1=O [Compound 228] ([NMeL]I[NMeA][Aze][NMeCha][Sar][hPhe(3-Cl-4-CF3)]P[Ac5c][NMeT][NMeD]-Piperidide; lactam N-11)	> 500	24
